Data as given in paper PMC9234961 (Journal of Medicinal Chemistry, 2022).
pEC50, pIC50: −log10 of the molar value.

How the values were obtained:
AR = biological target: T1, AR (Homo sapiens, UniProt P10275); assay: SAFETYScan NHR Nuclear Translocation, Antagonist; format: cell-based
T1 sequence (P10275 1-920): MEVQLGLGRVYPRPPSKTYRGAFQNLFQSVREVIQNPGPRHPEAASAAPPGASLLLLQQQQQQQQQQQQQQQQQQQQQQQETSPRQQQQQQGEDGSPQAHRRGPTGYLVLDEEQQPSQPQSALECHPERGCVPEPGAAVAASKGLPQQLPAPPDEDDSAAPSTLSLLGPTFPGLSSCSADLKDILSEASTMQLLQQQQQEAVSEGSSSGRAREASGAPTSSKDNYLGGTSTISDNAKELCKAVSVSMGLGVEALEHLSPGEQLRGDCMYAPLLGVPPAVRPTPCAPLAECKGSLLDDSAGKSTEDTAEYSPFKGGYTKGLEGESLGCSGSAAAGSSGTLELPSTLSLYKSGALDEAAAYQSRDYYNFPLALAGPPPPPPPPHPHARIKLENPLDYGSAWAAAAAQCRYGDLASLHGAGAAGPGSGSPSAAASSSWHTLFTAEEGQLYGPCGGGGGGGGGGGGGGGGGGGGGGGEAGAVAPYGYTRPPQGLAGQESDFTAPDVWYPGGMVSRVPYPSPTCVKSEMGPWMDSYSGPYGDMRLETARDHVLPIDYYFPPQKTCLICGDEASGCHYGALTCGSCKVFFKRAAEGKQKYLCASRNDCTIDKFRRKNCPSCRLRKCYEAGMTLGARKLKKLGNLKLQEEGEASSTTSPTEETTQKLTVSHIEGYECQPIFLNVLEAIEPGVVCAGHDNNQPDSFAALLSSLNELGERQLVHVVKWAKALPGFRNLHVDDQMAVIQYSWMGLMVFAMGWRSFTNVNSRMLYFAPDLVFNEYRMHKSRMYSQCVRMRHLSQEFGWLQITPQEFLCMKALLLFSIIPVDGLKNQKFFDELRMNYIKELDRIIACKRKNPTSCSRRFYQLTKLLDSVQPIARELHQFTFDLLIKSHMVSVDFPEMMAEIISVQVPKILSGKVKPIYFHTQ
Description: (§1) Supplement jm1c02175_si_002.xlsx, sheet "SAFETYScan" | column: RC50 (uM); Max Response

HT = assay: Cell proliferation assay (14 days), HT
Description: Cells were seeded in 96-well culture plates at a density of 2500 cells/well in RPMI-1640 medium (Sigma-
Aldrich) supplemented with 10% FBS (Gibco). Compounds were initially dispensed into 96-well U-bottom
plates using an Echo 550 acoustic dispenser (Labcyte Inc.), then diluted in RPMI-1640 medium and
transferred onto the cells. Cells were treated with 8 compound concentrations in duplicate, ranging from
with compound for 14 days, with medium changes at days 3, 7 and 10 carried out as follows: fresh 96-well
cell culture plates were prepared containing 100 µl medium plus compound at the assay concentrations
(white plates were used on day 10 to optimise luminescence measurement). Assay plates containing cells
were vortexed to mix and cell density in one control well was counted using a Coulter Z2 cell counter
(Beckman Coulter). The volume of medium containing 2500 cells in the control well was calculated and this volume of cells was transferred from every well of the assay plates to the corresponding well of the fresh plates containing compound. After 14 days, CellTiter Glo reagent (Promega) was added to the medium in each well of the assay plate at a ratio of 1:2, mixed on a plate shaker, then incubated at room temperature for 10 minutes. Luminescence was measured using an Envision plate reader (Perkin Elmer) and the relative luminescence at each compound concentration, compared to DMSO alone, was calculated. GI50 were determined using a 4-parameter curve fit in Dotmatics (Bishops Stortford, UK).

OPRM1 = OPRM1 (Homo sapiens, UniProt P35372); assay: SAFETYScan GPCR cAMP, Agonist; format: cell-based
OPRM1, sequence (P35372 whole entry, species assumed): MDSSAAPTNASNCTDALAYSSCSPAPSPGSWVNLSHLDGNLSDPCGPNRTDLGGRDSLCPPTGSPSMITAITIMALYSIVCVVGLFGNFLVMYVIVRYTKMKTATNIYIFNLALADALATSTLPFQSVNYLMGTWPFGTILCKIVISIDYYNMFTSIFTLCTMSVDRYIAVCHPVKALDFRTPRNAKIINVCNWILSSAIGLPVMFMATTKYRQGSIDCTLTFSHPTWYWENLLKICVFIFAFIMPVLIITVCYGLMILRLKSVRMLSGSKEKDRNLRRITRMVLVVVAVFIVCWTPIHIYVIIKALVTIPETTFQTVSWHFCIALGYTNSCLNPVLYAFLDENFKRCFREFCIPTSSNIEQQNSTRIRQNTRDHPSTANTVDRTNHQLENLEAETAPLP
Description: as §1

ADRB1 = biological target: T2, ADRB1 (Homo sapiens, UniProt P08588); assay: SAFETYScan GPCR cAMP, Agonist; format: cell-based
T2 construct: expressed in transfected cells
T2 sequence (P08588 whole entry): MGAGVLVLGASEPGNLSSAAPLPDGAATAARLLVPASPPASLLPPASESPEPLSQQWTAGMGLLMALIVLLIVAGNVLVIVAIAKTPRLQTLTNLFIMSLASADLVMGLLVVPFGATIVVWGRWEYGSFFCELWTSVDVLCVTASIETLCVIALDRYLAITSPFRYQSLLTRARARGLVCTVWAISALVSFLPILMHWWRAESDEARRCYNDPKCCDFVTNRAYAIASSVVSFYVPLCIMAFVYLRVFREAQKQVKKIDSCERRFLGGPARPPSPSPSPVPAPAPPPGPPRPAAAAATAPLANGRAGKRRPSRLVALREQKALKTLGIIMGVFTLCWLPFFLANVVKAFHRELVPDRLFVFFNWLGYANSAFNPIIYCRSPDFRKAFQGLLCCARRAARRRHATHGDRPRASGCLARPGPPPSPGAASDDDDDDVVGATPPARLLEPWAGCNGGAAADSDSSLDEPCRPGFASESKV
Description: as §1

CNR2 = biological target: T3, CNR2 (Homo sapiens, UniProt P34972); assay: SAFETYScan GPCR cAMP, Agonist; format: cell-based
T3 construct: expressed in transfected cells
T3 sequence (P34972 whole entry): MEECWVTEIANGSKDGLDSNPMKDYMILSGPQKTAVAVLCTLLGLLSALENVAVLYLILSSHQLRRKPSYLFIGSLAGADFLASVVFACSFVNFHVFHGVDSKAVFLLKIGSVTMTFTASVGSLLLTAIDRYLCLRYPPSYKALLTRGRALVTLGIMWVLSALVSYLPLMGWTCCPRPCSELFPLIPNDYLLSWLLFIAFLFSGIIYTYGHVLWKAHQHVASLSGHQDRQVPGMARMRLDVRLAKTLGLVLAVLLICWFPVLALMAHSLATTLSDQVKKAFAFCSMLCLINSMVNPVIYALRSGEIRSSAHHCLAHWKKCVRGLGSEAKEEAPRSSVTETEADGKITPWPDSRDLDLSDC
Description: as §1

DRD2S = biological target: T4, DRD2S (Homo sapiens, UniProt P14416); assay: SAFETYScan GPCR cAMP, Agonist; format: cell-based
T4 construct: expressed in transfected cells
T4 sequence (P14416 1-414 isoform P14416-2): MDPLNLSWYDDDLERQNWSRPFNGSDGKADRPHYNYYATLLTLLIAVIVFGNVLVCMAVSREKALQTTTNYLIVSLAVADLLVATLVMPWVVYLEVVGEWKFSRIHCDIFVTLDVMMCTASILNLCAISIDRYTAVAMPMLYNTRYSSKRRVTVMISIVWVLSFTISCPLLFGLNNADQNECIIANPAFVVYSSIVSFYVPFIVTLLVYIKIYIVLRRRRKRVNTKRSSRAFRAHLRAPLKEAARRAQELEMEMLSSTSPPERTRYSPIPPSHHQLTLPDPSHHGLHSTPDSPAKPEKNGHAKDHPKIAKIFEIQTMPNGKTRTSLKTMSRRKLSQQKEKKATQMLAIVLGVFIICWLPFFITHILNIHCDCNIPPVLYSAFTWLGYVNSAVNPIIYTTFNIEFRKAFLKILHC
Description: as §1

OPRK1 = OPRK1 (Homo sapiens, UniProt P41145); assay: SAFETYScan GPCR cAMP, Agonist; format: cell-based
OPRK1, sequence (P41145 whole entry, species assumed): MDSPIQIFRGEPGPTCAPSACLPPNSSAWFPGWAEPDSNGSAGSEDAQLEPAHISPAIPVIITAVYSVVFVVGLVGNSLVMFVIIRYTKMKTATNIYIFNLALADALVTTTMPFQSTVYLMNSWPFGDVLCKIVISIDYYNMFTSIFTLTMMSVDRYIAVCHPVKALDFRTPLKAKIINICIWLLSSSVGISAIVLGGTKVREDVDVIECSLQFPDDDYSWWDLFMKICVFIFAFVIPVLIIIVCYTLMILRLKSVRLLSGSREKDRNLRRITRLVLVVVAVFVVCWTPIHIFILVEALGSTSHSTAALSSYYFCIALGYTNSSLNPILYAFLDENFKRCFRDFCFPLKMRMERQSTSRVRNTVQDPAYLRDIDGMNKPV
Description: as §1

HTR1A = biological target: T5, HTR1A (Homo sapiens, UniProt P08908); assay: SAFETYScan GPCR cAMP, Agonist; format: cell-based
T5 construct: expressed in transfected cells
T5 sequence (P08908 1-422): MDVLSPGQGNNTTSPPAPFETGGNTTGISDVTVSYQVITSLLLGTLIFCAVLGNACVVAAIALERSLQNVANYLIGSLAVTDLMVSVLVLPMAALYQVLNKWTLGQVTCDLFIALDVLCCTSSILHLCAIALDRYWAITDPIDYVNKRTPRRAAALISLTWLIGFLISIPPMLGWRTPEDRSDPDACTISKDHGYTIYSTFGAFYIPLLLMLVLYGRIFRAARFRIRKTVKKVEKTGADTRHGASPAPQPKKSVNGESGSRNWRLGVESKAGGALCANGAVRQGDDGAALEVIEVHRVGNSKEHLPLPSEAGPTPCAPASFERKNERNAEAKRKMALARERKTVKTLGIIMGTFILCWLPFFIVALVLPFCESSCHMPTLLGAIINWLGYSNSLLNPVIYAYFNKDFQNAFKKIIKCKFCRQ
Description: as §1

DRD1 = biological target: T6, DRD1 (Homo sapiens, UniProt P21728); assay: SAFETYScan GPCR cAMP, Agonist; format: cell-based
T6 construct: expressed in transfected cells
T6 sequence (P21728 whole entry): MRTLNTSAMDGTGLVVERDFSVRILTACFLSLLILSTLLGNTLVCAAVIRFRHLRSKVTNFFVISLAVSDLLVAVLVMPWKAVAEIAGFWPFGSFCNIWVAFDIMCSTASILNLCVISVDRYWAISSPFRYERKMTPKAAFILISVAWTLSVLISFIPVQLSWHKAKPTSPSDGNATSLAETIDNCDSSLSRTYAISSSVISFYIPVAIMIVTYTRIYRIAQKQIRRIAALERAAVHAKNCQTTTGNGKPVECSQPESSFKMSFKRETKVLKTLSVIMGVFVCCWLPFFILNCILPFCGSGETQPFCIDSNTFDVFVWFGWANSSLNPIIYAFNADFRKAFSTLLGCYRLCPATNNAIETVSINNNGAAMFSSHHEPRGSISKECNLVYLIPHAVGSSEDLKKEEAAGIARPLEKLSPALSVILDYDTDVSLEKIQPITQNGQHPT
Description: as §1

CHRM2 = biological target: T7, CHRM2 (Homo sapiens, UniProt P08172); assay: SAFETYScan GPCR cAMP, Agonist; format: cell-based
T7 construct: expressed in transfected cells
T7 sequence (P08172 1-466): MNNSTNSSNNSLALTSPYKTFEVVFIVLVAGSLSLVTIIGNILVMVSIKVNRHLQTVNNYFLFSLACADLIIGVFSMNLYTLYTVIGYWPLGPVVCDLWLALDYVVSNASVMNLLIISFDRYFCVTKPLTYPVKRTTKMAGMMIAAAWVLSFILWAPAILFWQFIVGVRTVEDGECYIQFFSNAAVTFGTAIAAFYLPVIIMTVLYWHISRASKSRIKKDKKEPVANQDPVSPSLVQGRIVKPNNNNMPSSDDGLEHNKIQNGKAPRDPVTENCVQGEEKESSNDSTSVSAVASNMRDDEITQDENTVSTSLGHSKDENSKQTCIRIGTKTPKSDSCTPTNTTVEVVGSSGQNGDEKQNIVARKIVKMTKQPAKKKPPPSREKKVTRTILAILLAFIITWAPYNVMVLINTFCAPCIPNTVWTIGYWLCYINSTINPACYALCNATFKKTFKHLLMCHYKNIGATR
Description: as §1

CNR1 = biological target: T8, CNR1 (Homo sapiens, UniProt P21554); assay: SAFETYScan GPCR cAMP, Agonist; format: cell-based
T8 construct: expressed in transfected cells
T8 sequence (P21554 whole entry): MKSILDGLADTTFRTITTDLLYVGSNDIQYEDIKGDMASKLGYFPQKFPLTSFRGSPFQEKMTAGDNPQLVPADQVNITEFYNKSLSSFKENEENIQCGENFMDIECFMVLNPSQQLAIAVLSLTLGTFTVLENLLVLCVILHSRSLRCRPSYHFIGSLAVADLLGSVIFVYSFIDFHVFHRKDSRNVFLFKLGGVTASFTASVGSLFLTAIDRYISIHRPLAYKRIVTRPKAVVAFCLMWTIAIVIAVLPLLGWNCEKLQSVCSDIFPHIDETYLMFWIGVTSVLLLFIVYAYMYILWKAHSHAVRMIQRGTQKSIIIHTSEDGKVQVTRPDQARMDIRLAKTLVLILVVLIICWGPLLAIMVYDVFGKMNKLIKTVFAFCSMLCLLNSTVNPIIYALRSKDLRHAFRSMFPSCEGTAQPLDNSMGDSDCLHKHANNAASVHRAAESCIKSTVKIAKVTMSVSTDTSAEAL
Description: as §1

ADRB2 = biological target: T9, ADRB2 (Homo sapiens, UniProt P07550); assay: SAFETYScan GPCR cAMP, Agonist; format: cell-based
T9 construct: expressed in transfected cells
T9 sequence (P07550 whole entry): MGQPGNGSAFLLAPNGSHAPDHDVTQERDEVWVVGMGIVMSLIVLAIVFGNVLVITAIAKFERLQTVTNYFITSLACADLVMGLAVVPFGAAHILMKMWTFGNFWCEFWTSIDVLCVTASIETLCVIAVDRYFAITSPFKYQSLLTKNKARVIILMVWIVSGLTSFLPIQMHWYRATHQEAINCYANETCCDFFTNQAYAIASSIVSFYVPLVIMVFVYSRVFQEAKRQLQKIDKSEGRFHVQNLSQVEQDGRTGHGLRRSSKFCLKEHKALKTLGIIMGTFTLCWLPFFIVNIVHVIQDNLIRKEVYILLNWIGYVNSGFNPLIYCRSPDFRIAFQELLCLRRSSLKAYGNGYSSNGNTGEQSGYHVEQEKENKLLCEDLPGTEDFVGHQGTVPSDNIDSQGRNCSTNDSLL
Description: as §1

## C[C@H]1C[C@@H](O)CN(c2ncc(Cl)c(Nc3ccc4c(c3)c3c(c(=O)n4C)OCC(F)(F)[C@H](C4CC4)N3)n2)C1 [12a CCT373566, (S)-10-((5-Chloro-2-((3R,5S)-3-hydroxy-5-methylpiperidin-1-yl)pyrimidin-4-yl)amino)-2-cyclopropyl-3,3-difluoro-7-methyl-1,2,3,4-tetrahydro-[1,4]oxazepino[2,3-c]quinolin-6(7H)-one]
AR; read-out: Max Response
  Emax: 0%
AR; read-out: RC50 (IC50)
  pIC50: < 5.00
HT; 14-day proliferation assay
  HT GI50: Very potent growth inhibition
HT; Homo sapiens, HT, 336 h, read-out: HT GI50
  GI50: 0.008 µM
OPRM1; read-out: Max Response
  Emax: 28.9%
OPRM1; read-out: RC50 (EC50)
  pEC50: < 5.00
ADRB1; read-out: Max Response
  Emax: 0%
ADRB1; read-out: RC50 (EC50)
  pEC50: < 5.00
CNR2; read-out: Max Response
  Emax: 0%
CNR2; read-out: RC50 (EC50)
  pEC50: < 5.00
DRD2S; read-out: Max Response
  Emax: 1.64%
DRD2S; read-out: RC50 (EC50)
  pEC50: < 5.00
OPRK1; read-out: Max Response
  Emax: 37.1%
OPRK1; read-out: RC50 (EC50)
  pEC50: < 5.00
HTR1A; read-out: Max Response
  Emax: 12.5%
HTR1A; read-out: RC50 (EC50)
  pEC50: < 5.00
DRD1; read-out: Max Response
  Emax: 0%
DRD1; read-out: RC50 (EC50)
  pEC50: < 5.00
CHRM2; read-out: Max Response
  Emax: 15%
CHRM2; read-out: RC50 (EC50)
  pEC50: < 5.00
CNR1; read-out: Max Response
  Emax: 18.9%
CNR1; read-out: RC50 (EC50)
  pEC50: < 5.00
ADRB2; read-out: Max Response
  Emax: 0%
ADRB2; read-out: RC50 (EC50)
  pEC50: < 5.00
